US9365584B2, “Thieno [2,3-B] pyridinedione activators of AMPK and therapeutic uses thereof” (Poxel, priority 2009, dated 2016)

System: AMPK
Test: AMPK enzyme activity assay (Delfia technology, AMARA peptide substrate)
Type: biochemical
Settings: compound at 30 μM vs AMP at 200 μM
In short: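 Value is the ratio of compound (30 μM) to AMP (200 μM) response, each as % of basal control. Phosphorylation of the AMARA peptide after AMPK addition was read by Delfia with an anti-phosphoserine antibody.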

| Compound | Activity: Ratio between the % of control (basal activity) of compound of formula (1) at 30 μM and the % of control (basal activity) of AMP (natural substrate) at 200 μM |
| --- | --- |
| CC1(c2cccc(S(C)(=O)=O)c2)C(=O)Nc2sc(Cl)c(-c3cccc(F)c3)c2C1=O (centres unmarked) [No 148, 2-chloro-3-(3-fluorophenyl)-5-methyl-5-(3-methyl-sulfonylphenyl)-7H-thieno[2,3-b]pyridine-4,6-dione] | A (0%<A<50%) |
| CC1(c2ccc(S(C)(=O)=O)cc2)C(=O)Nc2sc(Cl)c(-c3cccc(F)c3)c2C1=O (centres unmarked) [No 149, 2-chloro-3-(3-fluorophenyl)-5-methyl-5-(4-methyl-sulfonylphenyl)-7H-thieno[2,3-b]pyridine-4,6-dione] | A (0%<A<50%) |
| COc1ccc(C2(C)C(=O)Nc3sc(Cl)c(-c4ccc(C)cc4)c3C2=O)cc1 (centres unmarked) [No 150, 2-chloro-5-(4-methoxyphenyl)-5-methyl-3-(p-tolyl)-7H-thieno[2,3-b]pyridine-4,6-dione] | A (0%<A<50%) |
| O=C1Nc2sc(Cl)c(-c3cc(F)ccc3OCc3ccccc3)c2C(=O)C1(F)c1ccccc1 (centres unmarked) [No 151, 3-(2-benzyloxy-5-fluoro-phenyl)-2-chloro-5-fluoro-5-phenyl-7H-thieno[2,3-b]pyridine-4,6-dione] | A (0%<A<50%) |
| COc1ccc(OCc2ccccc2)c(-c2csc3c2C(=O)C(F)(c2ccccc2)C(=O)N3)c1 (centres unmarked) [No 152, 3-(2-benzyloxy-5-methoxy-phenyl)-5-fluoro-5-phenyl-7H-thieno[2,3-b]pyridine-4,6-dione] | B (50%≦B<75%) |
| COc1ccc(-c2c(Cl)sc3c2C(=O)C(C)(c2ccccc2F)C(=O)N3)cc1 (centres unmarked) [No 153, 2-chloro-5-(2-fluorophenyl)-3-(4-methoxyphenyl)-5-methyl-7H-thieno[2,3-b]pyridine-4,6-dione] | A (0%<A<50%) |
| COc1ccc(C2(C)C(=O)Nc3sc(Cl)c(-c4cccc(C)c4)c3C2=O)cc1 (centres unmarked) [No 155, 2-chloro-5-(4-methoxyphenyl)-5-methyl-3-(m-tolyl)-7H-thieno[2,3-b]pyridine-4,6-dione] | A (0%<A<50%) |
| Cc1cccc(-c2c(Cl)sc3c2C(=O)C(C)(c2ccccc2F)C(=O)N3)c1 (centres unmarked) [No 156, 2-chloro-5-(2-fluorophenyl)-5-methyl-3-(m-tolyl)-7H-thieno[2,3-b]pyridine-4,6-dione] | A (0%<A<50%) |
| O=C1Nc2sc(Cl)c(-c3cccc(F)c3)c2C(=O)C1(F)c1ccccc1 (centres unmarked) [No 157, 2-chloro-5-fluoro-3-(3-fluorophenyl)-5-phenyl-7H-thieno[2,3-b]pyridine-4,6-dione] | C (C≧75%) |
| Cc1cccc(-c2c(Cl)sc3c2C(=O)C(C)(c2cccc(F)c2)C(=O)N3)c1 (centres unmarked) [No 158, 2-chloro-5-(3-fluorophenyl)-5-methyl-3-(m-tolyl)-7H-thieno[2,3-b]pyridine-4,6-dione] | A (0%<A<50%) |
| COc1cc(-c2csc3c2C(=O)C(F)(c2ccccc2)C(=O)N3)ccc1Br (centres unmarked) [No 159, 3-(4-bromo-3-methoxy-phenyl)-5-fluoro-5-phenyl-7H-thieno[2,3-b]pyridine-4,6-dione] | C (C≧75%) |
| COc1cc(-c2c(F)sc3c2C(=O)C(F)(c2ccccc2)C(=O)N3)ccc1Br (centres unmarked) [No 160, 3-(4-bromo-3-methoxy-phenyl)-2,5-difluoro-5-phenyl-7H-thieno[2,3-b]pyridine-4,6-dione] | B (50%≦B<75%) |

Continued, values first:

| Activity: Ratio between the % of control (basal activity) of compound of formula (1) at 30 μM and the % of control (basal activity) of AMP (natural substrate) at 200 μM | Compound |
| --- | --- |
| B (50%≦B<75%) | O=C1Nc2scc(-c3cccc(Br)c3)c2C(=O)C1(F)c1ccccc1 (centres unmarked) [No 163, 3-(3-bromophenyl)-5-fluoro-5-phenyl-7H-thieno[2,3-b]pyridine-4,6-dione] |
| C (C≧75%) | O=C1Nc2sc(F)c(-c3cccc(Br)c3)c2C(=O)C1(F)c1ccccc1 (centres unmarked) [No 164, 3-(3-bromophenyl)-2,5-difluoro-5-phenyl-7H-thieno[2,3-b]pyridine-4,6-dione] |
| C (C≧75%) | COc1ccc(C2(F)C(=O)Nc3sc(F)c(-c4ccc(F)cc4)c3C2=O)cc1 (centres unmarked) [No 165, 2,5-difluoro-3-(4-fluorophenyl)-5-(4-methoxyphenyl)-7H-thieno[2,3-b]pyridine-4,6-dione] |
| A (0%<A<50%) | O=C1Nc2scc(-c3ccc(Br)cc3)c2C(=O)C1(F)c1cccnc1 (centres unmarked) [No 166, 3-(4-bromophenyl)-5-fluoro-5-(3-pyridyl)-7H-thieno[2,3-b]pyridine-4,6-dione] |
| A (0%<A<50%) | COc1ccc(C2(F)C(=O)Nc3scc(-c4ccccc4)c3C2=O)cc1 (centres unmarked) [No 167, 5-fluoro-5-(4-methoxyphenyl)-3-phenyl-7H-thieno[2,3-b]pyridine-4,6-dione] |
| A (0%<A<50%) | COc1ccc(C2(F)C(=O)Nc3sc(F)c(-c4ccccc4)c3C2=O)cc1 (centres unmarked) [No 168, 2,5-difluoro-5-(4-methoxyphenyl)-3-phenyl-7H-thieno[2,3-b]pyridine-4,6-dione] |
| C (C≧75%) | COc1ccc(C2(F)C(=O)Nc3sc(Cl)c(-c4ccc(F)cc4O)c3C2=O)cc1 (centres unmarked) [No 169, 2-chloro-5-fluoro-3-(4-fluoro-2-hydroxy-phenyl)-5-(4-methoxyphenyl)-7H-thieno[2,3-b]pyridine-4,6-dione] |
| A (0%<A<50%) | Cc1cccc(-c2c(Cl)sc3c2C(=O)C(C)(c2ccc(F)cc2)C(=O)N3)c1 (centres unmarked) [No 170, 2-chloro-5-(4-fluorophenyl)-5-methyl-3-(m-tolyl)-7H-thieno[2,3-b]pyridine-4,6-dione] |
| A (0%<A<50%) | Cc1cccc(-c2c(Cl)sc3c2C(=O)C(C)(c2cccc(C)c2)C(=O)N3)c1 (centres unmarked) [No 171, 2-chloro-5-methyl-3,5-bis(m-tolyl)-7H-thieno[2,3-b]pyridine-4,6-dione] |
| B (50%≦B<75%) | O=C1Nc2scc(-c3ccc(Cl)cc3)c2C(=O)C1(F)c1ccccc1 (centres unmarked) [No 172, 3-(4-chlorophenyl)-5-fluoro-5-phenyl-7H-thieno[2,3-b]pyridine-4,6-dione] |
| B (50%≦B<75%) | O=C1Nc2sc(F)c(-c3ccc(Cl)cc3)c2C(=O)C1(F)c1ccccc1 (centres unmarked) [No 173, 3-(4-chlorophenyl)-2,5-difluoro-5-phenyl-7H-thieno[2,3-b]pyridine-4,6-dione] |
